“Also recorded” adds a separate entry of the source. Read-outs that look alike come from different tables or passages of the source. Each block holds one compound with its values, some of them ahead of it.
Experiments:
[1] = target: 179 lysC RNA; assay type: binding, B. subtilis
[2] = tested on: lysC 5′-UTR fused to lacZ reporter gene; assay type: cell-based, B. subtilis; details: wild-type construct, minimal medium plus 1 mM compound
[3] = target: RNA construct encompassing nucleotides 1 through 315 of the lysC 5′-UTR; details: read-out: apparent KD; aptamer plus expression platform
[4] = target: 179 lysC RNA; experiment: In-line probing of 179 lysC RNA; details: read-out: apparent KD; half-maximal structural modulation
[5] = tested on: lysC 5′-UTR template; experiment: In vitro transcription termination assay, lysC 5′-UTR; details: 10 mM ligand, E. coli RNA polymerase, single-round
[6] = target: ribD RNA; experiment: In-line probing of ribD RNA (RFN element); assay type: binding, B. subtilis; details: read-out: apparent KD
[7] = tested on: ribD leader region; experiment: In vitro transcription of ribD leader region; assay type: biochemical; details: T7 or B. subtilis RNA polymerase, no additional protein factors
[8] = target: 202-nucleotide leader sequence of the btuB mRNA; assay type: binding, Escherichia coli; details: half-maximal structural modulation, 25° C., 20 mM MgCl2, pH 8.3; read-out: apparent KD
Protocol: Precursor mRNA leader molecules were prepared by in vitro transcription from templates generated by PCR (see In vivo Expression Constructs and Assays section below) and 5′ ^32p-labeled using methods described previously (Soukup and Breaker, Allosteric nucleic acid catalysts. Curr. Opin. Struct. Biol. 10, […] (2000)). Approximately 20 nM of labeled RNA precursor was incubated as described in the brief description of FIG. 1. Accompanying digestions were carried out using reaction conditions similar to those described previously (Soukup and Breaker, Relationship between internucleotide linkage geometry and the stability of […]. RNA 5, 1308-1325 (1999)). […]
Metabolite-dependent conformational changes in the 202-nucleotide leader sequence of the btuB mRNA. […] The image was generated using a phosphorimager (Molecular Dynamics), and cleavage yields were quantitated by using ImageQuant software. […]
The btuB mRNA leader forms a saturable binding site for AdoCbl. […] 5′-^32P-labeled mRNA leader molecules were incubated, separated, and analyzed as described in the in the legend to FIG. 1A, and include identical control and marker lanes as indicated. […] Fraction cleaved values were normalized relative to the highest and lowest cleavage values measured for each location, including the values obtained upon incubation in the absence of AdoCbl. […]

[9] = target: btuB mRNA leader mutants m4 and m5; assay type: binding, Escherichia coli; details: mutants m4 and m5 (possible P4/P9 pseudoknot)
[10] = tested on: btuB leader-lacZ fusion; experiment: btuB-lacZ expression assay; assay type: cell-based, E. coli; details: wild-type btuB leader
[11] = tested on: 202-nucleotide mRNA leader (btuB); experiment: Equilibrium dialysis with btuB mRNA leader
[12] = target: 251 yitJ RNA; assay type: binding, B. subtilis
[13] = target: 124 yitJ RNA; experiment: In-line probing of 124 yitJ RNA; assay type: binding, B. subtilis; details: minimized aptamer domain
[14] = tested on: metI leader construct; assay type: biochemical, B. subtilis
[15] = tested on: aptamer domain from B. subtilis cysH; assay type: binding
[16] = tested on: yitJ, yoaD and metK leader constructs; experiment: In vitro transcription termination with T7 RNA polymerase, yitJ, yoaD and metK leaders; details: 50 μM
[17] = tested on: 165 thiM RNA; assay type: binding, E. coli; details: for Kd: read-out: apparent KD
Description: (§1) Specifically, TPP-dependent modulation of the spontaneous cleavage of RNA constructs was visualized by polyacrylamide gel electrophoresis (PAGE). […] Some RNAs were subjected to no reaction, partial digestion with alkali, or partial digestion with RNase T1 (G-specific cleavage) (see FIG. 6a). Composite plots of the fraction of RNA cleaved at specific sites versus the logarithm of the concentration of ligand (e.g. FIG. 7a) were generated to provide an estimate of the apparent KD. Fraction cleaved values were normalized relative to the highest and lowest cleavage values measured for each site.
NR, ^−OH and T1 represent RNAs subjected to no reaction, partial digestion with alkali, or partial digestion with RNase Tl (G-specific cleavage), respectively. Product bands representing cleavage after selected G residues are numbered and identified by filled arrowheads. The asterisk identifies modulation of RNA structure involving the Shine-Dalgarno (SD) sequence. Gel separations were analyzed using a phosphorimager (Molecular Dynamics) and quantitated using ImageQuant software.

[18] = target: 240 thiC RNA; experiment: In-line probing of 240 thiC RNA; assay type: binding, E. coli; details: Example 2, FIG. 7A; read-out: apparent KD
Protocol: Some RNAs were subjected to no reaction, partial digestion with alkali, or partial digestion with RNase T1 (G-specific cleavage) (see FIG. 6a). Composite plots of the fraction of RNA cleaved at specific sites versus the logarithm of the concentration of ligand (e.g. FIG. 7a) were generated to provide an estimate of the apparent KD. Fraction cleaved values were normalized relative to the highest and lowest cleavage values measured for each site. […] Reactions were conducted and analyzed as described in above for FIG. 6A. […] The truncated RNA 111 thiC is boxed. Nucleotides enclosed in boxes identify an alternative pairing.

[19] = tested on: 91 thiM RNA; assay type: binding, E. coli
Description: as §1
ii. The thiM and thiC mRNA Leaders Serve as High-Affinity Metabolite Receptors. […] Arrows reflect the estimated concentration of TPP needed to attain half maximal modulation of RNA (apparent KD). […] The boxed data was generated using TPP with the truncated RNAs 91 thiM and 111 thiC. […] Details for the RNA probing analysis are similar to those described above in connection with FIG. 6A. The graphs were generated by ImageQuant software.

[20] = target: TPP-binding domain of A. thaliana (128-nucleotide RNA); experiment: In-line probing of Arabidopsis TPP-binding domain; design: species or system Arabidopsis thaliana; details: read-out: apparent dissociation constant (KD)
[21] = tested on: 93 xpt RNA; experiment: In-line probing of 93 xpt RNA; assay type: binding, B. subtilis
[22] = tested on: 93 xpt RNA; experiment: Equilibrium dialysis with 93 xpt RNA; assay type: binding, B. subtilis
[23] = tested on: xpt-pbuX 5′-UTR fused to β-galactosidase reporter gene; experiment: xpt-lacZ β-galactosidase reporter expression; assay type: cell-based, B. subtilis; details: wild-type xpt construct
[24] = tested on: 80 ydhL RNA; experiment: In-line probing of 80 ydhL RNA; assay type: binding, B. subtilis
[25] = tested on: purE RNA; experiment: In-line probing of purE RNA; assay type: binding, B. subtilis; details: 1 μM ligand
[26] = tested on: wild-type ydhL riboswitch fused to β-galactosidase reporter gene; experiment: ydhL-lacZ β-galactosidase reporter expression; assay type: cell-based, B. subtilis
[27] = tested on: xpt riboswitch variant with the C to U mutation at position 74, reporter construct; assay type: cell-based, B. subtilis
[28] = target: purine-binding aptamer from a pool of random-sequence RNAs; details: cited from earlier work
[29] = target: 201 xpt RNA; experiment: In-line probing of 201 xpt RNA; details: read-out: apparent KD; limit of detection of the assay

SMILES: NCCCC[C@H](N)C(=O)O [L-lysine]
Kd ([1]; 1 μM RNA, 3H-lysine 50 nM to 2.5 μM, read-out: apparent KD (Scatchard plot)): ~1 µM | fraction of tritiated L-lysine in chamber b ([1]; 10 μM 179 lysC in chamber b, 50 nM 3H-lysine, 10 hr): ~0.8 | restoration of equal tritium distribution by unlabeled competitor ([1]; 50 μM unlabeled compound, additional 10 hr): symmetric distribution of tritium is restored | repression of β-galactosidase reporter expression [2]: exhibits ligand-dependent modulation | Kd [3]: ~500 µM | Kd [4]: ~1 µM | terminated product relative to total transcription yield [5]: ~76%

Kd [6]: ~0.005 µM
SMILES: Cc1cc2nc3c(=O)[nH]c(=O)nc-3n(C[C@H](O)[C@H](O)[C@H](O)COP(=O)(O)O)c2cc1C [FMN, flavin mononucleotide]
transcription termination at the intrinsic terminator [7]: specifically induced by FMN

SMILES: C/C1=C2/[N-]C([C@H](CC(N)=O)[C@@]2(C)CCC(=O)NC[C@@H](C)OP(=O)([O-])O[C@H]2[C@@H](O)[C@@H](n3cnc4cc(C)c(C)cc43)O[C@@H]2CO)[C@]2(C)N=C(/C(C)=C3N=C(/C=C4N=C1[C@@H](CCC(N)=O)C\4(C)C)[C@@H](CCC(N)=O)[C@]\3(C)CC(N)=O)[C@@H](CCC(N)=O)[C@]2(C)CC(N)=O.[CH2-][C@H]1O[C@@H](n2cnc3c(N)ncnc32)[C@@H](O)[C@@H]1O.[Co+3] [AdoCbl, 5′-deoxy-5′-adenosylcobalamin]
Kd [8]: ~0.3 µM | Kd [9]: ~5 µM | regulatory effector function on reporter gene inside cells [10]: down regulation of a reporter gene | restoration of equal tritium distribution by excess unlabeled compound ([11]; 5,000 pmoles unlabeled compound added to chamber b): restores equal distribution of tritium | cpm ratio (chamber b relative to a) ([11]; 3H-AdoCbl, mRNA leader in chamber b): ~2

SMILES: C[S+](CC[C@H](N)C(=O)O)C[C@H]1O[C@@H](n2cnc3c(N)ncnc32)[C@H](O)[C@@H]1O (some centres unmarked) [SAM, S-adenosylmethionine]
Kd [12]: ~0.2 µM | Kd [13]: ~0.004 µM | termination product ([14]; 50 μM effector, wild-type metI): ~75% | additional yield in transcription termination ([14]; mutant Mabc (six mutations)): ~20% | affinity poorer than that of yitJ [15]: more than 2 orders of magnitude | transcription termination [16]: modest transcription termination

SMILES: Cc1ncc(C[n+]2csc(CCO[P@](=O)(O)OP(=O)(O)O)c2C)c(N)n1 [TPP, thiamine pyrophosphate]
structure modulation ([17]; 40 μM each compound): induce modulation | Kd ([17]; Example 2, FIG. 7A): 0.6 µM | Kd ([17]; thiM RNA as reported in Example 3 (FIG. 13)): 0.5 µM | Kd [18]: 0.1 µM | improvement of apparent KD compared to the longer construct (165 thiM) [19]: approximately 20 fold | Kd [20]: ~0.05 µM

SMILES: Nc1nc2nc[nH]c2c(=O)[nH]1 [guanine]
modulation of spontaneous cleavage pattern ([21]; 1 μM (adenine as much as 1 mM), 93 xpt and 201 xpt): undergo significant alteration | Kd ([21]; wild-type xpt RNA, Example 8 (FIG. 39a), read-out: apparent KD): ≤ 0.005 µM | tritiated guanine co-localized with RNA ([22]; 100 nM 3H-guanine, 300 nM RNA): greater than 90% | redistribution of 3H-guanine by excess unlabeled competitor ([22]; 500 nM analog): redistributes | shift of distribution of tritiated ligand by RNA ([22]; Example 8: 100 nM tritiated ligand, 3 μM RNA): able to shift the distribution of tritiated guanine | repression of β-galactosidase reporter expression [23]: repressed by guanine; also recorded: causes repression of β-galactosidase expression | binding / structural modulation [24]: remains unchanged | allosteric response [25]: responds allosterically to guanine | β-galactosidase activity [26]: very low β-galactosidase activity | regulation of reporter expression [27]: loss of regulation upon addition of guanine | Kd [28]: 1.3 µM | Kd [29]: ≤ 0.005 µM
